# US20250025465A1, “WT-IDH1 INHIBITION USING A COVALENT AND BRAIN-PENETRANT SMALL MOLECULAR INHIBITOR FOR FERROPTOSIS INDUCTION IN HIGH-GRADE GLIOMA” (Northwestern University, priority 2021, published 2025)
# “Also recorded” adds a separate entry of the source. Like-named read-outs stand apart in the source and are kept apart here.
# Key:
# wt-IDH1 [1] = biological target: T1, wt-IDH1 (Homo sapiens, UniProt O75874); assay: cell-free wt-IDH1 enzyme inhibition; assay type: biochemical; conditions: read-out: EC50, blocks wt-IDH1
# Excerpt: (§1) A therapeutic strategy for the pharmacological inhibition of wt-IDH1 has been devised.
# (§2) The compound 13i was developed using a high-throughput screen of a proprietary library, which encompasses 750,000 compounds. During the screen, the investigators identified a hit series, centered around compound wt-IDH1i-1, which contained a large cluster of α,β-unsaturated enones^9. As indicated by the wt-IDH1: wt-IDH1i-1 crystal structure, wt-IDH1-1i bound to a fully closed wt-IDH1 enzyme and competed with NADPH for access to the wt-IDH1 active site via formation of a covalent adduct and the […] trapping of H315 located within the NAPDH binding site^9. […] Blastp searches identified wt-IDH2 as the only NADPH-dependent enzyme that contained an NADPH binding site with significant similarity to the NADPH binding pocket found in wt-IDH1. […] Of note, while H315 and D375 are conserved between wt-IDH1 and wt-IDH2, other important amino acids, including those adjacent to D375 that form a lipophilic groove (K374/L383/A378) required for 13i binding are different, and are likely to mediate compound selectivity.
# Target sequence in this assay (O75874 whole entry): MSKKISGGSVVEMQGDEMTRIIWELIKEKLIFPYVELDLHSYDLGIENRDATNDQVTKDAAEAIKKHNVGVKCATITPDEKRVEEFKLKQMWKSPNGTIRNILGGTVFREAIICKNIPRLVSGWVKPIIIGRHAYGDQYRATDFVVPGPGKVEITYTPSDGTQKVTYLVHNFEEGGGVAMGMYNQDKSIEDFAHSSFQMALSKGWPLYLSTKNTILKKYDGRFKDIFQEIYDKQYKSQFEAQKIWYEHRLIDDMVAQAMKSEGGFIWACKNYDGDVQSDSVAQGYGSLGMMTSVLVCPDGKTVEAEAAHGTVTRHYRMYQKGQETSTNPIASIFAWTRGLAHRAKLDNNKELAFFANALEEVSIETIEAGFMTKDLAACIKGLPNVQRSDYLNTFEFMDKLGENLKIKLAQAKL
# recombinant wt-IDH2 = biological target: T2, recombinant wt-IDH2 (Homo sapiens, UniProt P48735); assay: NADPH production by recombinant wt-IDH2; assay type: biochemical; conditions: FIG. 6
# T2 sequence (P48735 40-452): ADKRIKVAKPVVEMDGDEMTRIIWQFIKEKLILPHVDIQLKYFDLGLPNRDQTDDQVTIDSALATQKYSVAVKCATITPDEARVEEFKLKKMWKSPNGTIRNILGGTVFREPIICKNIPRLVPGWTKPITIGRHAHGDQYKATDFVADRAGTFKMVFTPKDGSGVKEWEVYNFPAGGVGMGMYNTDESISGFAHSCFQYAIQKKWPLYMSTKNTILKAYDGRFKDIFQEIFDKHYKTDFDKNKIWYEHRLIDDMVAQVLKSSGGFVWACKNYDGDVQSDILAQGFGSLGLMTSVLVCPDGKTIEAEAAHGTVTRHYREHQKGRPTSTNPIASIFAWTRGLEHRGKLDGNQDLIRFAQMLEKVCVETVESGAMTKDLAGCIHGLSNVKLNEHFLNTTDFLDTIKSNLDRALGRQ
# Excerpt: FIG. 6. wt-IDH1i-13 is a selective covalent wt-IDH1 inhibitor.
# as §2
# HGG glioma cells = assay: SYTOX green staining of glioma cells (plasma membrane rupture, ferroptosis); assay type: cell-based; conditions: for ferroptosis / plasma membrane rupture (SYTOX green positivity): compared to vehicle control, FIG. 11; for rescue of 13i treatment effect by co-treatment: co-treatment with 13i, SYTOX green, FIG. 11A-C
# HGG PDX = assay: adult HGG PDX model treated with 13i and RT; assay type: in vivo, mice; conditions: for enhancement of RT anti-tumor effect: i.p. administration, RT 2 Gy x 5
# Excerpt: (§3) (A). Treatment schedule. (B). […]. (C). Kaplan-Meyer survival benefit analysis. (D) H&E stainings of normal brain from PDX mice treated with RT+13i. *p<0.05.
# (§4) . Toxicity to normal brain structures was not observed, as indicated by H&E stainings of tumor-adjacent normal cortex, hippocampus and cerebellum (FIG. 12E).
# [2] = H&E staining of normal brain from PDX mice treated with RT+13i; assay type: in vivo; conditions: H&E of tumor-adjacent normal cortex, hippocampus and cerebellum
# Excerpt: as §3, §4
# [3] = see Chung et al.; cited from earlier work
# wt-IDH1 [4] = biological target: T1, wt-IDH1; assay: cellular wt-IDH1 inhibition; assay type: cell-based; set-up: endogenous in cells
# Excerpt: as §1
# Target sequence in this assay (O75874 2-414 limits assumed): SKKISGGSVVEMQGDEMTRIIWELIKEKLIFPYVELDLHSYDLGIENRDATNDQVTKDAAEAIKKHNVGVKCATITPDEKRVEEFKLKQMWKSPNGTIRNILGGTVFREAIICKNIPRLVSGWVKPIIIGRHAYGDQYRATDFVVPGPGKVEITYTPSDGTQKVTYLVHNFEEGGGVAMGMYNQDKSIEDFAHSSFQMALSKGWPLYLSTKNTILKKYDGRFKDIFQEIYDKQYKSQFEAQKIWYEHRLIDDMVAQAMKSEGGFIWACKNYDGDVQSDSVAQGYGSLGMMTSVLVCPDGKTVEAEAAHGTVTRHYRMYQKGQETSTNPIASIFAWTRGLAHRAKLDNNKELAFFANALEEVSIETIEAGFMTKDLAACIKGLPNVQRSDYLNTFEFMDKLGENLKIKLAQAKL
# [5] = system: patient-derived HGG cells; assay: growth and cell death in patient-derived HGG cells; assay type: cell-based
# Excerpt: (§5) As these mt-IDH1-specific inhibitors recognize an allosteric site within the enzyme dimerization domain, many of these compounds show ‘off-target’ effect against wt-IDH1, as elucidated in cell-free enzyme repression assays.
# [6] = in vivo effects of mt-IDH1 inhibitors in HGG
# Excerpt: as §5
# U87MG cells = assay: clonogenic growth assay, RT enhancement upon wt-IDH1 knockdown; assay type: cell-based; conditions: incubation with antioxidant precursor, FIG. 5A
# Experimental: FIG. 5. wt-IDH1 inactivation enhances RT anti-tumor effect (A). RT enhancement ratio, as assessed via clonogenic growth assay in U87MG cells, upon genetic wt-IDH1inactivation, in the presence or absence of the ROS scavenger N-acetyl […] (NAC). (B). wt-IDH1 in doxy-treated xenogafts. (C). Tumor volume in mice subcutaneously implanted with U87MG cells carrying a doxy-inducible shIDH1 were treated with doxy and irradiated with a total of 14 Gy administered in 7 fractions of 2 Gy, and tumor volumes were measured. *p<0.05. (D.) Kaplan-Meyer estimates for tumor tripling, *p<0.005 vs. control; **p<0.001 vs. control, RT and doxy. […] Knockdown of wt-IDH1 decreased HGG cell line NADPH concentrations by 50-60%, and similarly depleted numerous NADPH-dependent metabolites, including the antioxidant glutathione (GSH). […] To determine whether combining RT and wt-IDH1 knockdown had beneficial anti-HGG effects in vivo, we established flank xenografts carrying a doxycycline (doxy)-inducible shRNA directed against wt-IDH1. A flank model was used due to the variable CNS penetrance of doxy. Immunoblotting confirmed that administration of doxy had the intended effects on wt-IDH1 expression in both inducible shIDH1 and shCo xenografts (FIG. 5B).
# wt-IDH1 [7] = biological target: T1, wt-IDH1; conditions: covalent engagement with the NADPH pocket; from the screen of Jakob et al.; read-out: cell-free EC50; cited from earlier work
# Target sequence in this assay (O75874 whole entry): as the sequence (O75874 whole entry) above
compound,measurement,setting,value
"C[C@@H]1C(=O)C(C#N)=C[C@]2(c3ccccc3)c3nc(Nc4ccccc4)ncc3CC[C@@H]12 [13i, (6aS,7S,10aR)-2-anilino-7-methyl-8-oxo-10a-phenyl-5,6,6a,7-tetrahydrobenzo[h] quinazoline-9-carbonitrile]",EC50,wt-IDH1 [1],14 nM
same,fold higher EC50 against recombinant wt-IDH2 compared to wt-IDH1,recombinant wt-IDH2,100 fold
same,ferroptosis / plasma membrane rupture (SYTOX green positivity),HGG glioma cells,induced plasma membrane rupture; also recorded: promotes ferroptosis
same,ferroptosis / plasma membrane rupture (SYTOX green positivity),HGG glioma cells; listed as wt-DIH1i-13,promotes ferroptosis
same,tumor volume / progression (bioluminescence),"HGG PDX; i.p. 10 mg/kg M-F, in combination with RT 2 Gy x 5, 10 mg/kg",highly reduced tumor volume; also recorded: reduces the progression
same,survival,"HGG PDX; i.p. 10 mg/kg M-F, in combination with RT 2 Gy x 5, versus vehicle, 10 mg/kg",increased survival; also recorded: extends the survival
same,enhancement of RT anti-tumor effect,HGG PDX,enhancement of RT anti-tumor effect
same,enhancement of RT anti-tumor effect,HGG PDX; listed as wt-DIH1i-13,enhances RT anti-tumor effect in vivo
same,toxicity to normal brain structures,[2],not observed
same,brain penetrance,[3],brain-penetrant
same,IC50,wt-IDH1 [4],800 to 1700 nM
COc1c(C)cc(NC(=O)c2nn(Cc3ccc(F)cc3)c3c2CN(C(=O)c2ccc[nH]2)C[C@]3(C)C(N)=O)cc1C [GSK864],drug concentrations sufficient to impact growth and cell death,[5],in the high micromolar range
same,in vivo effects,[6],moderate
"CC(=O)N[C@@H](CS)C(=O)O [NAC, N-acetyl cysteine, reference compound]",rescue of 13i treatment effect by co-treatment,HGG glioma cells,rescued 13i treatment effect
same,reversal of radiosensitization conferred by wt-IDH1 knockdown,U87MG cells,nearly completely reversed
"CCOC(=O)c1ccc(NC2CCCCC2)c(N)c1 [ferrostatin, reference compound]",rescue of 13i treatment effect by co-treatment,HGG glioma cells,rescued 13i treatment effect
"C[C@@H]1C(=O)C(C#N)=C[C@]2(C)c3nc(Nc4ccccc4)ncc3CC[C@@H]12 [wt-IDH1i-1, (6aS,7S,10aR)-2-anilino-7,10a-dimethyl-8-oxo-5,6,6a,7-tetrahydrobenzo[h] quinazoline-9-carbonitrile]",EC50,wt-IDH1 [7],49 nM
